Measured values from patent US20200055848A1, “FURANONE DERIVATES AND METHODS OF USE THEREOF” (CARNA BIOSCIENCES, INC., priority 2016, published 2020).
Read-outs that look alike come from different tables or passages of the source.

Experiments:
[1] = target: T1, human Cdc7/human ASK complex protein (Homo sapiens, UniProt O00311); experiment: Cdc7/ASK enzymatic assay; type: biochemical
T1 construct: purchased Carna Biosciences, Inc
Protocol: Measurement of Cdc7 kinase activity was carried out using MSA assay kit (QuickScout™ Screening Assist Kit, Carna Biosciences, Inc.). Assay buffer (20 mM HEPES, 0.01% Triton X-100™, 2 mM dithiothreitol, pH 7.5) was used to prepare a substrate mixture solution comprising 4 μM of kinase-reaction substrate (FITC-labeled MCM2 peptide), 40 mM MgCl2, and 4 times concentrations of final targeted ATP (5, 100, and 1,000 μM). The enzyme supplied in the kit (human Cdc7/human ASK complex protein) was diluted into the assay buffer to prepare a 7 nM solution (enzyme solution). The compound stock solution was prepared by diluting a 10 mM DMSO solution into the assay buffer (final 4% DMSO). The kinase reaction was performed by mixing of 5 μL of the compound solution, 5 μL of the substrate mixture solution, and 10 μL of the enzyme solution in a 384-well plate. For the pre-incubation assay, the compound solution and the enzyme solution were pre-mixed and incubated at ambient temperature for 30 min before adding into the substrate mixture solution to start enzymatic reaction. After the reaction at 25° C. for 5 hours, 60 μL of the termination buffer (supplied in the kit) was added to stop the reaction. The phosphorylation of substrate was measured using a LabChip EZ Reader II system (Caliper Life Sciences). The percent inhibition (%) by a tested compound was calculated according to the following formula:
Percent inhibition (%)=(1−(C−A)/(B−A))×100
A represents P/(P+S) for a blank well, B represents P/(P+S) for a solvent well, and C represents P/(P+S) for a compound-added well. S: the peak heights of the separated substrate, P: phosphorylated substrate.
The IC50 value of tested compound was calculated by regression analysis of the percent inhibition values versus the (logarithmic) concentration of the tested compound.

[2] = In vitro metabolic stability, human liver microsomes; type: in vitro ADME
Protocol: (§1) NADPH regeneration system (13 mM NADP, 33 mM Glucose-6-phospate, 33 mM MgCl2, and 4 U/mL of Glucose-6-phosphate dehydrogenase) and liver microsomes (1 mg/mL of HLM (BD Gentest, lot 18888) or MLM (BD Gentest, lot 31197)) in 0.1 M phosphate buffer (pH 7.4) were pre-incubated separately at 37° C. for 20 min before mixing with 1:4 ratio. 50 μL of the mixed solution was added to 50 μL of the test compound (2 μM) to initiate the reaction at 37° C. (final conc. 1 μM test compound, 0.4 mg/mL liver microsomes, and 1.3 mM NADPH). After 30 min, the reactions were stopped by adding 300 μL of cold acetonitrile. For 0 min samples, ice-cold acetonitrile (with system suitability standard) was treated before mixing the test compound and microsomes. The sample were vortexed well and then centrifuged at 3500 rpm at 15° C. for 20 min. 110 μL of supernatant was mixed with 110 μL of water and quantitated by LC-MS/MS workstation (Shimazu Corp.).

[3] = In vitro metabolic stability, mouse liver microsomes; type: in vitro ADME
Protocol: as §1

Cdc7 = Cdc7 (Homo sapiens, UniProt O00311); experiment: Rapid dilution assay (dissociation rate from Cdc7); type: biochemical
From the text: FIG. 2 is a graph of the results obtained from the rapid dilution assay for Cdc7 inhibitors. Recovery of enzymatic activity was monitored by formation of the phosphorylated product. DMSO control (closed circle), compound 1 (open triangle), compound 13 (open square).
To better understand the observed time dependent inhibition of these compounds, compound 13 was subjected to the rapid dilution assay to study dissociation rate, and compared with compound 1. The inhibitor-enzyme mixture was rapidly diluted into the assay buffer containing the substrate and a high concentration of ATP, and then the phosphorylated product formation was monitored over 500 min of time course.

panel of 121 kinases = experiment: Kinase selectivity screen over a panel of 121 kinases; type: biochemical; conditions: 1 mM ATP with preincubation
Protocol: (§2) To investigate the representative kinase selectivity of these compounds at physiological ATP levels, compound 13 was screened over a panel of 121 kinases in the presence of 1 mM ATP with preincubation method. […] IC50 values of hit kinases were determined to confirm the selectivity of compound 13.

DYRK1B = DYRK1B (Homo sapiens, UniProt Q9Y463); experiment: Kinase selectivity IC50, DYRK1B; type: biochemical
Protocol: as §2

Erk2 = Erk2 (Homo sapiens, UniProt P28482); experiment: Kinase selectivity IC50, Erk2; type: biochemical
Protocol: as §2

PIM1 = PIM1 (Homo sapiens, UniProt P11309); experiment: Kinase selectivity IC50, PIM1; type: biochemical
Protocol: as §2

HEL299 = experiment: Anti-proliferation activity in HEL299; type: cell-based; conditions: HEL 299; HEL299, derived from a human embryo lung tissue
[4] = 1 mM ATP with preincubation, mean of duplicated assays

CCOC(=O)C1=C(Nc2ccccc2Cl)OC(=Cc2c[nH]c3ncccc23)C1=O [Compound 13, Ethyl 5-((1H-pyrrolo[2,3-b]pyridin-3-yl)methylene)-2-((2-chlorophenyl)amino)-4-oxo-4,5-dihydrofuran-3-carboxylate]
IC50 ([1]; 5 μM ATP, mean of duplicated assays, read-out: Cdc7 IC50): 2.4 nM | pre-incubation effect on Cdc7 inhibition ([1]; 30 min pre-incubation with Cdc7, various ATP concentrations up to 1 mM): inhibitory potencies were sustained even in the presence of 1 mM ATP | Fold selectivity, Cdc7 ([1]; IC50 for each kinase versus Cdc7): 1.0 fold | IC50 ([1]; in the presence of 1 mM ATP, without pre-incubation, read-out: Cdc7 IC50): 191 nM | IC50 ([1]; kinase selectivity table, 1 mM ATP with preincubation, mean of duplicated assays, read-out: IC50 (nM), Cdc7): 0.6 nM | ATP competition assay: effect of ATP concentration on inhibitory potency ([1]; various ATP concentrations, without pre-incubation): ATP-dependent proportional decreases in inhibitory potencies | HLM % (remaining % of parent compound) ([2]; 30 min treatment of human liver microsomes): 67% | metabolic stability in human liver microsome (in words) ([2]; human): improved metabolic stabilities | MLM % (remaining % of parent compound) ([3]; 30 min treatment of mouse liver microsomes): 58% | metabolic stability in mice (in words) ([3]; mouse): improved metabolic stabilities | phosphorylated product formation after rapid dilution (Cdc7; monitored over 500 min): much reduced rate | koff (Cdc7; rapid dilution, high concentration of ATP, read-out: off-rate from Cdc7 (koff) (converted)): 5.83e-05 s⁻¹ | residence time (Cdc7; rapid dilution, high concentration of ATP, read-out: t1/2 of dissociation from Cdc7): 197 min | selectivity in favor of Cdc7 over CLKs (panel of 121 kinases): 8 fold | share of the kinase panel inhibited (panel of 121 kinases; >50% inhibition at 0.1 μM, 121 kinases): 7% | IC50 (DYRK1B; [4]): 53 nM | Fold selectivity, DYRK1B (DYRK1B; IC50 versus Cdc7): 88 fold | IC50 (Erk2; [4]): 61 nM | Fold selectivity, Erk2 (Erk2; IC50 versus Cdc7): 102 fold | IC50 (PIM1; [4]): 77 nM | Fold selectivity, PIM1 (PIM1; IC50 versus Cdc7): 129 fold | IC50 (HEL299): 1200 nM
